The source of these data is ChEMBL document CHEMBL5620398, “Membrane-active substituted triazines as antibacterial agents against Staphylococcus aureus with potential for low drug resistance and broad activity” (Eur J Med Chem, 2023).

Converted amounts (≈) assume the structure as drawn. The source made the active and inactive calls. The calls are words filed in the database; no cut-off is given here.

One data set has as its system Serratia marcescens. The data set is described as follows: Antibacterial activity against Serratia marcescens assessed as inhibition of bacterial growth by two-fold serial broth dilution method. Format: functional. For orientation: Dilution methods test growth across graded concentrations, often in twofold steps.
In data set [1] the test system is Enterococcus faecalis. The data set is described as follows: Antibacterial activity against Enterococcus faecalis assessed as inhibition of bacterial growth by two-fold serial broth dilution method. Format: functional.
Another data set relates to Listeria. The data set is described as follows: Antibacterial activity against Listeria sps. assessed as inhibition of bacterial growth by two-fold serial broth dilution method. The data set is classed as functional.
A further data set has as its system Salmonella enterica. In words: Antibacterial activity against Salmonella enterica assessed as inhibition of bacterial growth by two-fold serial broth dilution method. The data set is classed as functional.
The test system of the next data set is Bacillus subtilis. In words: Antibacterial activity against Bacillus subtilis assessed as inhibition of bacterial growth by two-fold serial broth dilution method. Format: functional.
The next data set deals with Escherichia coli. The data set is described as follows: Antibacterial activity against Escherichia coli assessed as inhibition of bacterial growth by two-fold serial broth dilution method. Format: functional.
The subject of a further data set is Staphylococcus aureus. In words: Antibacterial activity against Staphylococcus aureus assessed as inhibition of bacterial growth by two-fold serial broth dilution method. The data set is classed as functional.
For data set [2], the system named is Acinetobacter calcoaceticus. In words: Antibacterial activity against Acinetobacter calcoaceticus assessed as inhibition of bacterial growth by two-fold serial broth dilution method. Format: functional.
A further data set relates to HOP-92. In words: Cytotoxicity against human HOP-92 cells assessed as inhibition of cell growth at 10 uM. Format: functional.
The test system of the next data set is MOLT-4. The data set is described as follows: Cytotoxicity against human MOLT-4 cells assessed as inhibition of cell growth at 10 uM. Format: functional.
A further data set concerns SK-MEL-5. The data set is described as follows: Cytotoxicity against human SK-MEL-5 cells assessed as inhibition of cell growth at 10 uM. The data set is classed as functional.
The test system of data set [3] is HEK293. In words: Cytotoxicity against human HEK293 cells at 100 uM by MTT assay. Particulars: hek293, 100 µM. The data set is classed as toxicity, cell-based. (Tetrazolium dyes change colour on reduction, which living cells bring about.)
For another data set, the system named is A498. The data set is described as follows: Cytotoxicity against human A498 cells at 10 uM. Format: functional.
The subject of data set [4] is HEK293. The data set is described as follows: Cytotoxicity against human HEK293 cells at 0.01 uM by MTT assay. As to conditions: hek293, 0.01 µM. Format: toxicity, cell-based.
The subject of data set [5] is HEK293. In words: Cytotoxicity against human HEK293 cells at 1 uM by MTT assay. As to conditions: hek293, 1 µM. Format: toxicity, cell-based.
For data set [6], the system named is HEK293. The data set is described as follows: Cytotoxicity against human HEK293 cells at 0.1 uM by MTT assay. Format: toxicity, cell-based. Particulars: hek293, 0.1 µM.
Data set [7] has as its system HEK293. The data set is described as follows: Cytotoxicity against human HEK293 cells at 10 uM by MTT assay. Format: toxicity, cell-based. Particulars: hek293, 10 µM.
For another data set, the system named is MDA-MB-435. In words: Cytotoxicity against human MDA-MB-435 cells at 10 uM. The data set is classed as functional.
The subject of another data set is M14. The data set is described as follows: Cytotoxicity against human M14 cells assessed as inhibition of cell growth at 10 uM. Format: functional.
A further data set deals with MDA-MB-468. The data set is described as follows: Cytotoxicity against human MDA-MB-468 cells at 10 uM. Format: functional.
In a further data set the test system is COLO 205. In words: Cytotoxicity against human COLO 205 cells assessed as inhibition of cell growth at 10 uM. Format: functional.
The test system of data set [8] is Enterococcus faecalis. In words: Potency index, ratio of amoxicillin MIC to test compound MIC for antibacterial activity against Enterococcus faecalis. The data set is classed as functional.
In data set [9] the test system is Enterococcus faecalis. The data set is described as follows: Potency index, ratio of chloromycin MIC to test compound MIC for antibacterial activity against Enterococcus faecalis. The data set is classed as functional.

As a reminder, the MIC is the lowest concentration that inhibits growth of the organism. On to `O=C1c2cccc3cccc(c23)C(=O)N1Nc1nc(NCCN2CCOCC2)nc(N2CCOCC2)n1`, for which the MIC in the data set with Serratia marcescens amounted to 50 µg/mL (≈ 99.1 µM); in the data set with Enterococcus faecalis [1] it was 200 µg/mL (≈ 396 µM); with Listeria, 0.048 µg/mL (≈ 0.0951 µM); in the data set with Salmonella enterica, 200 µg/mL (≈ 396 µM); in the data set with Bacillus subtilis, 200 µg/mL (≈ 396 µM); with Escherichia coli it was 100 µg/mL (≈ 198 µM). The MIC in the data set on Staphylococcus aureus is 3.12 µg/mL (≈ 6.18 µM); in [2], 200 µg/mL (≈ 396 µM).
Consider `O=C1c2cccc3cccc(c23)C(=O)N1Nc1nc(NCc2ccc(F)cc2)nc(N2CCOCC2)n1`, for which the MIC with Serratia marcescens was 200 µg/mL (≈ 400 µM); in the data set on Enterococcus faecalis [1], 6.25 µg/mL (≈ 12.5 µM); in the data set with Listeria, 200 µg/mL (≈ 400 µM); in the data set on Salmonella enterica it was 200 µg/mL (≈ 400 µM); with Bacillus subtilis, 100 µg/mL (≈ 200 µM); with Escherichia coli, 100 µg/mL (≈ 200 µM). For the same compound, the MIC in the data set with Staphylococcus aureus is 25 µg/mL (≈ 50 µM); in data set [2], 100 µg/mL (≈ 200 µM).
For the compound `O=C1c2cccc3cccc(c23)C(=O)N1Nc1nc(N2CCOCC2)nc(N2CCN(Cc3ccccc3)CC2)n1`, the MIC was 50 µg/mL (≈ 90.8 µM) in the data set on Serratia marcescens; 200 µg/mL (≈ 363 µM) in the data set on Enterococcus faecalis [1]; 6.25 µg/mL (≈ 11.4 µM) in the data set on Listeria; 200 µg/mL (≈ 363 µM) with Salmonella enterica; 200 µg/mL (≈ 363 µM) in the data set with Bacillus subtilis; 200 µg/mL (≈ 363 µM) in the data set with Escherichia coli. Besides, the minimum inhibitory concentration (MIC) was 100 µg/mL (≈ 182 µM) in the data set on Staphylococcus aureus and 200 µg/mL (≈ 363 µM) in data set [2].
The inhibition is how much of the control response was suppressed. For `O=c1[nH]cc(F)c(=O)[nH]1` [FLUOROURACIL], the inhibition at 10 µM with HOP-92 stood at 50.6%; in the data set with MOLT-4, 42.3%; in the data set on SK-MEL-5, 66.3%.
For `O=C1c2cccc3cccc(c23)C(=O)N1Nc1nc(N2CCOCC2)nc(N2CCN(c3ccccc3)CC2)n1`, the Activity in the data set with HEK293 [3] is 10.08%; with A498, -3.13%; with HEK293 [4], 14.05%; with HEK293 [5], 13.01%; with HEK293 [6] it was 13.57%; with HEK293 [7], 12%. Also, the Activity with MDA-MB-435 was -12.6%; in the data set with MDA-MB-468, -15.85%. The MIC with Serratia marcescens turned out to be 50 µg/mL (≈ 93.2 µM); in the data set with Enterococcus faecalis [1] it was 200 µg/mL (≈ 373 µM); in the data set on Listeria, 0.39 µg/mL (≈ 0.727 µM); in the data set on Salmonella enterica it was 200 µg/mL (≈ 373 µM); in the data set on Bacillus subtilis it was 50 µg/mL (≈ 93.2 µM); with Staphylococcus aureus, 100 µg/mL (≈ 186 µM). The MIC in [2] was 200 µg/mL (≈ 373 µM). Besides, the inhibition at 10 µM with HOP-92 stood at 92.5%; in the data set with MOLT-4, 81.6%; with SK-MEL-5, 95%; with M14, 80.6%; in the data set on COLO 205 it was 96.5%. Also, the MIC result in the data set on Escherichia coli is “inactive”.
`COc1ccc(CNc2nc(NN3C(=O)c4cccc5cccc(c45)C3=O)nc(N3CCOCC3)n2)cc1`: the MIC stood at 200 µg/mL (≈ 391 µM) in the data set on Serratia marcescens; 3.12 µg/mL (≈ 6.11 µM) with Enterococcus faecalis [1]; 50 µg/mL (≈ 97.7 µM) with Listeria; 100 µg/mL (≈ 195 µM) in the data set with Salmonella enterica; 12.5 µg/mL (≈ 24.4 µM) with Bacillus subtilis; 200 µg/mL (≈ 391 µM) in the data set with Escherichia coli. Further, the MIC with Staphylococcus aureus is 6.25 µg/mL (≈ 12.2 µM); in [2], 100 µg/mL (≈ 195 µM).
Take `O=C1c2cccc3cccc(c23)C(=O)N1Nc1nc(N2CCCCC2)nc(N2CCOCC2)n1`: the MIC in the data set with Serratia marcescens came to 200 µg/mL (≈ 435 µM); in the data set on Listeria it was 50 µg/mL (≈ 109 µM); in the data set on Salmonella enterica, 200 µg/mL (≈ 435 µM); in the data set on Bacillus subtilis, 6.25 µg/mL (≈ 13.6 µM); with Escherichia coli, 400 µg/mL (≈ 870 µM); in the data set on Staphylococcus aureus it was 1.56 µg/mL (≈ 3.39 µM). In data set [2], the MIC is 200 µg/mL (≈ 435 µM). The MIC entry in the data set on Enterococcus faecalis [1] was “inactive”.
Regarding `CCCCNc1nc(NN2C(=O)c3cccc4cccc(c34)C2=O)nc(N2CCOCC2)n1`, the MIC worked out at 200 µg/mL (≈ 447 µM) with Serratia marcescens; 0.09 µg/mL (≈ 0.201 µM) with Enterococcus faecalis [1]; 200 µg/mL (≈ 447 µM) with Listeria; 100 µg/mL (≈ 223 µM) in the data set with Salmonella enterica; 25 µg/mL (≈ 55.9 µM) in the data set on Bacillus subtilis; 400 µg/mL (≈ 894 µM) in the data set with Escherichia coli. In addition, the MIC with Staphylococcus aureus is 12.5 µg/mL (≈ 27.9 µM); in data set [2], 200 µg/mL (≈ 447 µM). Further, the figures for the Ratio with Enterococcus faecalis [8] and with Enterococcus faecalis [9] were 17 and 34, respectively.
Regarding `CN(C)CCNc1nc(NN2C(=O)c3cccc4cccc(c34)C2=O)nc(N2CCOCC2)n1`, the MIC worked out at 25 µg/mL (≈ 54.1 µM) in the data set with Serratia marcescens; 200 µg/mL (≈ 432 µM) in the data set on Enterococcus faecalis [1]; 50 µg/mL (≈ 108 µM) in the data set on Listeria; 100 µg/mL (≈ 216 µM) with Salmonella enterica; 200 µg/mL (≈ 432 µM) in the data set on Bacillus subtilis; 200 µg/mL (≈ 432 µM) in the data set with Escherichia coli. Moreover, the MIC (in the data set on Staphylococcus aureus; in [2]) was 100 µg/mL (≈ 216 µM) in each case.
On to `CCN(CC)CCNc1nc(NN2C(=O)c3cccc4cccc(c34)C2=O)nc(N2CCOCC2)n1`, for which the MIC came to 12.5 µg/mL (≈ 25.5 µM) in the data set on Serratia marcescens; 200 µg/mL (≈ 408 µM) in the data set with Enterococcus faecalis [1]; 0.19 µg/mL (≈ 0.387 µM) in the data set with Listeria; 200 µg/mL (≈ 408 µM) with Salmonella enterica; 50 µg/mL (≈ 102 µM) in the data set on Bacillus subtilis; 200 µg/mL (≈ 408 µM) in the data set with Escherichia coli. Moreover, the MIC was 100 µg/mL (≈ 204 µM) with Staphylococcus aureus and 200 µg/mL (≈ 408 µM) in [2].
